Assay results as given in ChEMBL document CHEMBL3045384, “Evaluating commercially available rodenticide baits for invasive Gambian giant pouched rats (Cricetomys gambianus)” (2010).

Assays:
Format in all cases: functional
Cricetomys gambianus [1] = assay: Rodenticidal activity against invasive Cricetomys gambianus (Gambian giant pouched rat) assessed as mean duration to death using 0.0025% compound pellets bait by 7 day multiple-choice feeding trail method
Cricetomys gambianus [2] = assay: Rodenticidal activity against invasive Cricetomys gambianus (Gambian giant pouched rat) assessed as rodent mortality using 0.0025% compound pellets bait by 7 day multiple-choice feeding trail method
Cricetomys gambianus [3] = assay: Rodenticidal activity against invasive Cricetomys gambianus (Gambian giant pouched rat) assessed as rodent body weight using 0.0025% compound pellets bait by 7 day multiple-choice feeding trail method (reference value: 1.44 kg)
Cricetomys gambianus [4] = assay: Rodenticidal activity against invasive Cricetomys gambianus (Gambian giant pouched rat) assessed as mean bait consumed using 0.0025% compound pellets bait by 7 day multiple-choice feeding trail method
Cricetomys gambianus [5] = assay: Rodenticidal activity against invasive Cricetomys gambianus (Gambian giant pouched rat) assessed as proportion of bait consumed using 0.0025% compound pellets bait by 7 day multiple-choice feeding trail method
Cricetomys gambianus [6] = assay: Rodenticidal activity against invasive Cricetomys gambianus (Gambian giant pouched rat) assessed as mean duration to death using 0.0005% compound pellets bait by 7 day multiple-choice feeding trail method
Cricetomys gambianus [7] = assay: Rodenticidal activity against invasive Cricetomys gambianus (Gambian giant pouched rat) assessed as rodent body weight using 0.0005% compound pellets bait by 7 day multiple-choice feeding trail method (reference value: 1.44 kg)
Cricetomys gambianus [8] = assay: Rodenticidal activity against invasive Cricetomys gambianus (Gambian giant pouched rat) assessed as rodent mortality using 0.0005% compound pellets bait by 7 day multiple-choice feeding trail method
Cricetomys gambianus [9] = assay: Rodenticidal activity against invasive Cricetomys gambianus (Gambian giant pouched rat) assessed as mean bait consumed using 0.0005% compound pellets bait by 7 day multiple-choice feeding trail method
Cricetomys gambianus [10] = assay: Rodenticidal activity against invasive Cricetomys gambianus (Gambian giant pouched rat) assessed as proportion of bait consumed using 0.0005% compound pellets bait by 7 day multiple-choice feeding trail method
Cricetomys gambianus [11] = assay: Rodenticidal activity against invasive Cricetomys gambianus (Gambian giant pouched rat) assessed as mean bait consumed using 0.005% compound blocks bait by 7 day multiple-choice feeding trail method
Cricetomys gambianus [12] = assay: Rodenticidal activity against invasive Cricetomys gambianus (Gambian giant pouched rat) assessed as mean bait consumed using 0.005% compound pellets bait by 7 day multiple-choice feeding trail method
Cricetomys gambianus [13] = assay: Rodenticidal activity against invasive Cricetomys gambianus (Gambian giant pouched rat) assessed as proportion of bait consumed using 0.005% compound pellets bait by 7 day multiple-choice feeding trail method
Cricetomys gambianus [14] = assay: Rodenticidal activity against invasive Cricetomys gambianus (Gambian giant pouched rat) assessed as mean duration to death using 0.005% compound blocks bait by 7 day multiple-choice feeding trail method
Cricetomys gambianus [15] = assay: Rodenticidal activity against invasive Cricetomys gambianus (Gambian giant pouched rat) assessed as rodent mortality using 0.005% compound blocks bait by 7 day multiple-choice feeding trail method
Cricetomys gambianus [16] = assay: Rodenticidal activity against invasive Cricetomys gambianus (Gambian giant pouched rat) assessed as rodent body weight using 0.005% compound blocks bait by 7 day multiple-choice feeding trail method (reference value: 1.44 kg)
Cricetomys gambianus [17] = assay: Rodenticidal activity against invasive Cricetomys gambianus (Gambian giant pouched rat) assessed as rodent mortality using 0.005% compound pellets bait by 7 day multiple-choice feeding trail method
Cricetomys gambianus [18] = assay: Rodenticidal activity against invasive Cricetomys gambianus (Gambian giant pouched rat) assessed as proportion of bait consumed using 0.005% compound blocks bait by 7 day multiple-choice feeding trail method
Cricetomys gambianus [19] = assay: Rodenticidal activity against invasive Cricetomys gambianus (Gambian giant pouched rat) assessed as rodent body weight using 0.005% compound pellets bait by 7 day multiple-choice feeding trail method (reference value: 1.44 kg)
Cricetomys gambianus [20] = assay: Rodenticidal activity against invasive Cricetomys gambianus (Gambian giant pouched rat) assessed as mean duration to death using 0.01% compound blocks bait by 7 day multiple-choice feeding trail method
Cricetomys gambianus [21] = assay: Rodenticidal activity against invasive Cricetomys gambianus (Gambian giant pouched rat) assessed as rodent mortality using 0.01% compound blocks bait by 7 day multiple-choice feeding trail method
Cricetomys gambianus [22] = assay: Rodenticidal activity against invasive Cricetomys gambianus (Gambian giant pouched rat) assessed as rodent body weight using 0.01% compound blocks bait by 7 day multiple-choice feeding trail method (reference value: 1.44 kg)
Cricetomys gambianus [23] = assay: Rodenticidal activity against invasive Cricetomys gambianus (Gambian giant pouched rat) assessed as proportion of bait consumed using 0.01% compound blocks bait by 7 day multiple-choice feeding trail method
Cricetomys gambianus [24] = assay: Rodenticidal activity against invasive Cricetomys gambianus (Gambian giant pouched rat) assessed as mean bait consumed using 0.01% compound blocks bait by 7 day multiple-choice feeding trail method

## O=c1oc2ccccc2c(O)c1C1CC(c2ccc(-c3ccc(Br)cc3)cc2)Cc2ccccc21 (centres undefined) [BRODIFACOUM]
Cricetomys gambianus [1]
  Time: 12.2 days
Cricetomys gambianus [2]
  Activity: 100%
Cricetomys gambianus [3]
  Activity: 1.37 kg
Cricetomys gambianus [4]
  Activity: 89 g
Cricetomys gambianus [5]
  Activity: 0.39%

## O=C1c2ccccc2C(=O)C1C(=O)C(c1ccccc1)c1ccc(Cl)cc1 (centres undefined) [CHLOROPHACINONE]
Cricetomys gambianus [6]
  Time: 11.7 days
Cricetomys gambianus [7]
  Activity: 1.47 kg
Cricetomys gambianus [8]
  Activity: 50%
Cricetomys gambianus [9]
  Activity: 89.7 g
Cricetomys gambianus [10]
  Activity: 0.3%

## O=C1c2ccccc2C(=O)C1C(=O)C(c1ccccc1)c1ccccc1 [DIPHENADIONE]
Cricetomys gambianus [11]
  Activity: 92.6 g
Cricetomys gambianus [12]
  Activity: 106.2 g
Cricetomys gambianus [13]
  Activity: 0.35%
Cricetomys gambianus [14]
  Time: 12 days
Cricetomys gambianus [15]
  Activity: 17%
Cricetomys gambianus [16]
  Activity: 1.5 kg
Cricetomys gambianus [17]
  Activity: 0%
Cricetomys gambianus [18]
  Activity: 0.3%
Cricetomys gambianus [19]
  Activity: 1.47 kg

## CN(c1c(Br)cc(Br)cc1Br)c1c([N+](=O)[O-])cc([N+](=O)[O-])cc1C(F)(F)F [BROMETHALIN]
Cricetomys gambianus [20]
  Time: 14 days
Cricetomys gambianus [21]
  Activity: 20%
Cricetomys gambianus [22]
  Activity: 1.55 kg
Cricetomys gambianus [23]
  Activity: 0.21%
Cricetomys gambianus [24]
  Activity: 25.58 g
